Where “and” joins values, the source holds several entries; their conditions need not be identical. Equal values may be shown once.

The text below walks through data of publication PMC9356783, “Succinimide Derivatives as Antioxidant Anticholinesterases, Anti-α-Amylase, and Anti-α-Glucosidase: In Vitro and In Silico Approaches” (Evidence-based Complementary and Alternative Medicine : eCAM, 2022).

In one assay the target is α-glucosidase (Saccharomyces cerevisiae, UniProt P53341). The assay is described as follows: α-Glucosidase inhibitory assay. The assay is classed as biochemical. As to the method:
In this assay, glucopyranoside is added to the solvent (phosphate buffer). Various concentrations of the synthetized compounds like 500, 250, 125, 62.5, and 31.25 µg/ml were used for preparing the sample solutions. Glucosidase in distilled water (0.5 µg/ml) was added to the above mixture. This mixture was then incubated for 20 minutes at 37°C [36]. After the incubation period, the reaction mixture was ceased by the addition of hydrochloric acid. The color intensity was determined at 540 nm wavelength using a spectrophotometer. The formula which was used to determine percentage inhibition is:(3) Percent Inhibition=AbsorbanceControl−AbsorbanceSample/Absorbance Control×100.

Another assay deals with T1, α-amylase (Sus scrofa, UniProt P00690).
T1 sequence (P00690 16-511): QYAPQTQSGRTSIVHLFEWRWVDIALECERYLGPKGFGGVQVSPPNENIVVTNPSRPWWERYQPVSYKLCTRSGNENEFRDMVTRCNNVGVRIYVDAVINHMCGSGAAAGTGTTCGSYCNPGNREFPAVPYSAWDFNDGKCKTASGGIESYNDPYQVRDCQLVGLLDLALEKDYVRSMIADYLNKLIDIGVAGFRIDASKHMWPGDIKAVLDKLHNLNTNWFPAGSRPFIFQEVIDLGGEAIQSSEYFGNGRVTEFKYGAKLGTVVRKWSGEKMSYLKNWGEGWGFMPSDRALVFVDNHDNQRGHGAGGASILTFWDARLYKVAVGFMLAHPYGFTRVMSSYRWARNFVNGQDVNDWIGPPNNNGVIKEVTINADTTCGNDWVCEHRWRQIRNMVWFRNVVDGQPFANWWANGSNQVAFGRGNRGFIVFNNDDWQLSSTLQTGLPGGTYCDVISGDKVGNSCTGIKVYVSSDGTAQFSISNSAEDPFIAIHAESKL
Briefly: In vitro α-amylase inhibition assay. It counts as biochemical. The protocol: In this assay, previously documented protocols were used. […] Starch solution was then mixed with the above solution and then incubated for about 20 minutes at 37°C. After incubation, the reactant mixture was then kept in a water bath for some time at 100°C. Color intensity was measured using a microplate reader at 656 nm. To determine percentage inhibition, the following formula was used:(4) Percent Inhibition=AbsorbanceControl−AbsorbanceSample/Absorbance Control×100.

A short description of assay [1]: DPPH radical scavenging assay. Particulars: for IC50: read-out: DPPH free radicals scavenging IC50. The protocol: A previously reported method for DPPH radical scavenging activity was used to determine the anti-oxidant activity of the synthetic compounds with insignificant modification. A solution of DPPH, e.g., (50 µL of 1.0 × 10^−3 M), was prepared freshly and then added to CH3OH (methyl alcohol). A solvent like methanol was used as a control group. The mixture was then incubated for 30 minutes at 25°C. A spectrophotometer is used to calculate the DPPH free radicals at specific wavelength like 517 nm. After the incubation period, Trolox (drug) was used as the control group (positive). The anti-oxidant activity was determined using the following formula:(1) Percent Inhibition=Absorbancecontrol−Absorbancetest sample/Absorbancecontrol×100.

A short description of assay [2]: ABTS radical scavenging assay. The settings on record: for IC50: read-out: ABTS free radicals scavenging IC50. As to the method:
A previously reported method for ABTS radical scavenging assay was used to determine the anti-oxidant activity of the synthetic compounds with negligible modification. The stock solution was prepared, e.g., 7 mM ABTS solution and 2.4 mM of potassium persulfate solution, and then mixed in equal amounts for about 16 hours. The stock solution was then diluted with methyl alcohol. Using a spectrophotometer, the absorption (0.7 ± 0.02) units at 734 nm wavelength were identified. In this assay, the solution was prepared freshly. The ABTS solution (150 µl) was mixed with the synthesized compounds (50 µl) and then reserved in darkness for about 10 minutes. The same procedure was repeated 3 times and then the results were verified using mean ± standard deviation. A solvent, e.g., methanol, was used as blank and the standard (butyl hydroxytoluen in methanol) were run at the same time. The absorbance was checked at a wavelength of 734 nm by utilizing a microplate reader.

For assay [3], the target named is T2, acetylcholinesterase (AChE) (Electrophorus electricus, UniProt O42275).
T2 construct: (AChE) acetylcholinesterase from electric eel; purchased Sigma Aldrich (local seller); host or cells: electric eel (natural source)
T2 sequence (O42275 24-633): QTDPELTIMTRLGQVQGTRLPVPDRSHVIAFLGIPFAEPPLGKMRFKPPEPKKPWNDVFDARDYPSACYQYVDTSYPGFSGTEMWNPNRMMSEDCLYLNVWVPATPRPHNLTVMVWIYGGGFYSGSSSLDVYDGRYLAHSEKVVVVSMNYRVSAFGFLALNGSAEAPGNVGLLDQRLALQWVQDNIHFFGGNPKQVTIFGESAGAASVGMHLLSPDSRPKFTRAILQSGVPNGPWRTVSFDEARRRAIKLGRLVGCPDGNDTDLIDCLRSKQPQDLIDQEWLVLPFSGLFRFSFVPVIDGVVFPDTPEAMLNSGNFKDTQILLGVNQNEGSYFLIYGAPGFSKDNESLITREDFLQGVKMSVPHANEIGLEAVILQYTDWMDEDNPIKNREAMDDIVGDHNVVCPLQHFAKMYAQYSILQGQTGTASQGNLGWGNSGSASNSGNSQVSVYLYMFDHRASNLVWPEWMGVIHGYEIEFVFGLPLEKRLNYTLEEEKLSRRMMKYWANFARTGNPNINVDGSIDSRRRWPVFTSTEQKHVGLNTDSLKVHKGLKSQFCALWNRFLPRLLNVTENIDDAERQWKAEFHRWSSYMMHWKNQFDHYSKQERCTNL
The assay is described as follows: biochemical. The assay is classed as biochemical. The protocol:
(§1) In Ellman's test, enzymes like (BChE) butyrylcholinesterase from equine serum and (AChE) acetylcholinesterase from electric eel were designated for studying the enzyme inhibitory capacity of the new synthesized compounds [33, 34].
(§2) Synthetic compounds in concentration ranging from 31.25 to 500 µg/ml, KH2PO4 (13.6 g/L) and K2HPO4 (17.4 g/L), were dissolved in 0.1 M phosphate buffer solution. After mixing, they were combined in 6 and 94% ratio, to make 0.1 M and 8.0 phosphate buffer solutions having […]. Potassium hydroxide was used to change the pH. The freshly prepared buffer […], AChE (518 U/mg solid), and BChE (7–16 U/mg) were diluted to achieve final absolute concentrations of 0.01 U/ml and 0.03 U/ml, respectively. In distilled water, BChI (0.0005 M), DTNB iedithio bis-nitrobenzoic acid solution (0.0002273 M), and AChI were prepared and then kept in the refrigerator [35].
(§3) After that, the substrate solution (5 μl) was added into the solution present in mixture form and was held in a water bath for 15 minutes at 30°C. Absorbance was measured at 412 nm using a double beam spectrophotometer. […] At 30°C, the absorbance and the time of the reaction were measured at 30°C for four minutes and repeated three times.

The target of assay [4] is T3, butyrylcholinesterase (BChE) (Equus caballus, UniProt P81908).
T3 construct: (BChE) butyrylcholinesterase from equine serum; purchased Sigma Aldrich (local seller); host or cells: equine serum (natural source)
T3 sequence (P81908 whole entry): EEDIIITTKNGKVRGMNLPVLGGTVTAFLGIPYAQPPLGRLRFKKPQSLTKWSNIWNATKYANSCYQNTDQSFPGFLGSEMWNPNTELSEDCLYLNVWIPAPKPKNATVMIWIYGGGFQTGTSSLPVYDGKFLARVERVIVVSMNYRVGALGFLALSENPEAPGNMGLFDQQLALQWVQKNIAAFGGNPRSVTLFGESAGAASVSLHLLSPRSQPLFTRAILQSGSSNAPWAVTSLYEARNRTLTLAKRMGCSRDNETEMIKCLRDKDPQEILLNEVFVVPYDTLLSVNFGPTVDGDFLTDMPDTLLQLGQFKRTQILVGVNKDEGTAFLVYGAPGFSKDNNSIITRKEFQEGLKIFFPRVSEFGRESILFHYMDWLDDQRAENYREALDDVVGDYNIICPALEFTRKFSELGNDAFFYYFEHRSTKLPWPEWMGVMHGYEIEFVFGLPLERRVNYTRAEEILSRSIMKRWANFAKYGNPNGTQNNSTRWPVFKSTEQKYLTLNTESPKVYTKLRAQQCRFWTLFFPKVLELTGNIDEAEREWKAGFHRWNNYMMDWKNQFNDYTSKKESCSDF
The assay is described as follows: biochemical. The assay is classed as biochemical. The protocol: as §1, §2, §3

Setting [5] is: 500 μmol/mL (first value of the series).
[6] abbreviates: first value of series, concentration not given (method 31.25 to 500 µg/ml).
Where [7] appears, read: fifth value of series, presumably 31.25.
Where [8] appears, read: fourth value of series, presumably 62.5.
Setting [9] is: second value of series, presumably 250.
The mark [10] stands for this setting: third value of series, presumably 125.

Sequence of α-glucosidase (P53341 whole entry): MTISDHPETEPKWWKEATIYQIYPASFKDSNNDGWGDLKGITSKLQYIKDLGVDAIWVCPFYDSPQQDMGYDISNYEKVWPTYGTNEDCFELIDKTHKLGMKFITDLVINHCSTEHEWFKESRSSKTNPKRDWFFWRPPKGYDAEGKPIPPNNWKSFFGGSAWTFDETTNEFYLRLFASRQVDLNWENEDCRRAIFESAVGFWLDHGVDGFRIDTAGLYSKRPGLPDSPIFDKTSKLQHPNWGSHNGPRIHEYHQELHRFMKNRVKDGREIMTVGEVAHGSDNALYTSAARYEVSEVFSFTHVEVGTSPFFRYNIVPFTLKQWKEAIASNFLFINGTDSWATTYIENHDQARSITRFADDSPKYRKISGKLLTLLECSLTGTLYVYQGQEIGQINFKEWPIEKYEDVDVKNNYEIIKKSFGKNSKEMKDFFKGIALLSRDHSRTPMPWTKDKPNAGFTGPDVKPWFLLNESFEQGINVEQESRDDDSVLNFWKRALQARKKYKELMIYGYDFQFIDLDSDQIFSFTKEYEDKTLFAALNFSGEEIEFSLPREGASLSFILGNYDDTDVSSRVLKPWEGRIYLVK

Take `C[C@H]1O[C@H](O[C@H]2[C@H](O)[C@@H](O)[C@@H](O[C@H]3[C@H](O)[C@@H](O)C(O)O[C@@H]3CO)O[C@@H]2CO)[C@H](O)[C@@H](O)[C@@H]1N[C@H]1C=C(CO)[C@@H](O)[C@H](O)[C@H]1O` (some centres unmarked) [Acarbose]: the α-glucosidase % inhibition on α-glucosidase (31.25 µmol/mL) is 71.22 ± 0.47%; on α-glucosidase (62.5 µmol/mL), 76.44 ± 0.28%; on α-glucosidase (125 µmol/mL) it was 80.90 ± 1.11%; at α-glucosidase (250 µmol/mL), 85.03 ± 2.16%; on α-glucosidase (500 µmol/mL) it was 94.40 ± 0.03%. Further, the α-amylase percent inhibition stood at 75.45 ± 0.90% on α-amylase (31.25 µmol/mL), 77.61 ± 0.43% on α-amylase (62.5 µmol/mL), 82.40 ± 0.20% at α-amylase (125 µmol/mL) and 91.90 ± 0.96% at α-amylase (500 µmol/mL).
Consider `O=C1O[C@H]([C@@H](O)CO)C(O)=C1O` [Ascorbic acid, reference compound], for which the “percent radical scavenging (DPPH)” value in assay [1] (31.25 μmol/mL (fifth value)) is 86.42 ± 0.43%; in assay [1] (62.5 μmol/mL (fourth value)), 88.22 ± 1.28%; in assay [1] (125 μmol/mL (third value)), 91.52 ± 0.66%; in assay [1] (250 μmol/mL (second value)) it was 93.56 ± 0.45%; in assay [1] (setting [5]), 98.65 ± 1.32%. Besides, the concentration for half-maximal inhibition (IC50) came to 6.25 µM in assay [1] and 4.66 µM in assay [2].
In the case of `O=C1CCCCC1C1CC(=O)N(c2ccccc2)C1=O` (centres unmarked) [MSJ1, 3-(2-oxocyclohexyl)-1-phenylpyrrolidine-2,5-dione], the half-inhibitory concentration (IC50) in assay [1] amounted to 34.6 µM; in assay [2], 29.4 µM.
Turning to `O=C1CCCCC1C1CC(=O)N(Cc2ccccc2)C1=O` (centres unmarked) [MSJ2, 1-benzyl-3-(2-oxocyclohexyl) pyrrolidine-2,5-dione], the “percent radical scavenging (DPPH)” value came to 73.45 ± 0.65% in assay [1] (31.25 μmol/mL (fifth value)); 78.23 ± 0.44% in assay [1] (62.5 μmol/mL (fourth value)); 81.50 ± 0.61% in assay [1] (125 μmol/mL (third value)); 84.47 ± 0.46% in assay [1] (250 μmol/mL (second value)); 86.47 ± 0.70% in assay [1] (setting [5]). For the same molecule, the 50% inhibitory concentration (IC50) is 2.59 µM in assay [1] and 7.32 µM in assay [2]. In assay [2] (31.25 µmo/mL (fifth value)), the “percent inhibitions (ABTS)” value was 74.65 ± 1.34%. Moreover, the “percent anti-AChE potential” value in assay [3] (setting [6]) is given as 91.90%. Further, the “percent anti-BChE potential” value in assay [4] (setting [6]) is given as 97.30%.
For `O=C1CCCCC1C1CC(=O)N(c2ccc(Br)cc2)C1=O` (centres unmarked) [MSJ3, 1-(4-bromophenyl)-3-(2-oxocyclohexyl) pyrrolidine-2,5-dione], the half-inhibitory concentration (IC50) in assay [1] worked out at 33.5 µM; in assay [2] it was 24 µM.
Turning to `CC1CCC(=O)C(C2CC(=O)N(c3ccccc3)C2=O)C1` (centres unmarked) [MSJ4, 3-(5-methyl-2-oxocyclohexyl)-1-phenylpyrrolidine-2,5-dione], the results for the half-inhibitory concentration (IC50) in assay [1] and in assay [2] were 32 µM and 48.7 µM, respectively.
As for `CC1CCC(=O)C(C2CC(=O)N(Cc3ccccc3)C2=O)C1` (centres unmarked) [MSJ5, 1-benzyl-3-(5-methyl-2-oxocyclohexyl)pyrrolidine-2,5-dione], the IC50 is 39 µM in assay [1] and 51.2 µM in assay [2].
Taken in the same sequence, the figures for `O=C1CCOCC1C1CC(=O)N(c2ccccc2)C1=O` (centres unmarked) [MSJ6, 3-(4-oxotetrahydro-2H-pyran-3-yl)-1-phenylpyrrolidine-2,5-dione] were 44.9 µM and 55.1 µM.
With `O=C1CCCCCC1C1CC(=O)N(c2ccccc2)C1=O` (centres unmarked) [MSJ7, 3-(2-oxocycloheptyl)-1-phenylpyrrolidine-2,5-dione], the 50% inhibitory concentration (IC50) in assay [1] came to 31.4 µM; in assay [2], 36.3 µM.
For `O=C1CCCC1C1CC(=O)N(c2ccccc2)C1=O` (centres unmarked) [MSJ8, 3-(2-oxocyclopentyl)-1-phenylpyrrolidine-2,5-dione] the same measures were 29.2 µM and 25.2 µM.
In the case of `CC(=O)CC1CC(=O)N(c2ccccc2)C1=O` (centres unmarked) [MSJ9, 3-(2-oxopropyl)-1-phenylpyrrolidine-2,5-dione], the concentration for half-maximal inhibition (IC50) in assay [1] turned out to be 53 µM; in assay [2] it was 38.1 µM.
`CC(=O)C(C)(C)C1CC(=O)N(c2ccccc2)C1=O` (centres unmarked) [MSJ10, 3-(2-methyl-3-oxobutan-2-yl)-1-phenylpyrrolidine-2,5-dione]: the “percent radical scavenging (DPPH)” value in assay [1] (62.5 μmol/mL (fourth value)) amounted to 79.67 ± 0.61%; in assay [1] (125 μmol/mL (third value)) it was 85.79 ± 0.63%; in assay [1] (250 μmol/mL (second value)), 90.90 ± 0.48%. The IC50 in assay [1] was found to be 2.52 µM; in assay [2] it was 3.29 µM; in assay [3] (read-out: IC50 against AChE), 4.97 µM; in assay [4] (read-out: IC50 against BChE), 10.7 µM. Moreover, the “percent inhibitions (ABTS)” value was determined as 79.67 ± 0.61% in assay [2] (62.5 µmo/mL (fourth value)), 85.79 ± 0.63% in assay [2] (125 µmo/mL (third value)) and 90.90 ± 0.48% in assay [2] (250 µmo/mL (second value)). For the same molecule, the “percent anti-AChE potential” value in assay [3] (setting [7]) is 78.58 ± 1.12%; in assay [3] (setting [6]), 93.20% and 93.20 ± 0.10%; in assay [3] (setting [8]), 83.40 ± 0.25%; in assay [3] (setting [9]) it was 90.09 ± 0.32%; in assay [3] (setting [10]) it was 88.67 ± 1.20%. Besides, the “percent anti-BChE potential” value in assay [4] (setting [7]) is 73.89 ± 0.49%; in assay [4] (setting [6]), 91.36% and 91.36 ± 0.39%; in assay [4] (setting [8]), 78.26 ± 0.43%; in assay [4] (setting [9]), 87.15 ± 1.07%; in assay [4] (setting [10]) it was 83.00 ± 0.44%.

By IC50 is commonly meant the concentration needed to halve the response being measured.
